What was measured:
[1] = test system: panel of G12C and non G12C lines pooled in vivo as xenografts; test: GENEVA combination therapy study in cell line pools in vivo as xenografts; parameters: species or system mouse; conditions: in combination with ARS1620; for drug synergy from cell cycle active/inactive proportions: G12C lines
Protocol: Treatment conditions include Antimycin, ARS1620, Galunisertib, INK128, DMSO, ARS1620+Antimycin, ARS1620+Galunisertib, ARS1620+INK128. FIG. 8B utilizes GENEVA data from FIG. 8A for synergy calculations performed on cell cycle states in each drug condition singly and in combination estimated for G12C lines across drug conditions.
2 mL of Matrigel Basement Membrane reagent was added to the GENEVA pool prepared by growth rate balancing for a final concentration of 20M/mL. One hundred microliters of this solution was injected into NSG mice in a flank xenograft injection. Twenty-four hours later, mice harboring GENEVA tumors were drugged with the drug compound in a vehicle solution of 5% DMSO, 95% Labrasol. Mice were dosed by oral gavage four fourteen days with five days on, two days off. On the fourteenth day, mice were sacrificed, tumors harvested by homogenization with surgical shears and resuspended in 5 mg/mL Liberase™ Cell Dissociation Reagent in 1:1 DMEM: F12 cell media, DNAse I (10 U/uL). Tumors were incubated in a 37° C. incubator with shaking at 600 RPMs for 45 minutes for enzymatic dissociation and then spun down at 800 g for 5 minutes at 4° C. Dissociated tumors were resuspended in 100 uL 1×PBS.
A panel of G12C and non G12C lines pooled in vivo as xenografts was utilized to conduct combination therapy studies comparing ARS1620 with and without Galunisertib, INK128, and Antimycin for a total of eight different treatment conditions; these compounds were taken from our combination therapy discoveries and mechanistic understanding of mitochondrial action of ARS1620 (FIG. 8A).

[2] = test system: H1373 KRAS.G12C mutant line; test: Multi-arm combination therapy in-vivo mouse study; conditions: in combination with ARS1620; for synergy in tumor growth reduction: compared to null model of independence
Protocol: Bliss drug synergy is plotted and several compounds show significant drug synergy with multiple KRAS.G12C inhibitors.
Using the GENEVA dataset of ARS-1620 in a fourteen day drug treatment timeline in which drug resistance developed, gene expression indicators of resistance mechanisms were obtained (FIG. 4A). […] The strongest GENEVA prediction, mTOR resistance, was tested in a multi-arm in vivo mouse study and significant in vivo Bliss drug synergy and tumor reduction over time was found (FIG. 4C,D).
The GENEVA datasets were compared where GENEVA pools were drugged with the KRAS.G12C inhibitor ARS1620, conducted both in vitro and in vivo. Specifically, the in vitro data were compared against the in vivo data to look for differences and similarities attributable to the context of the model systems used. […] As a validation study, a combination therapy multi-arm in vivo mouse study was designed to test the efficacy of an EMT inhibitor, Galunisertib in combination with ARS1620.

[3] = test system: lipid peroxidation; test: Lipid peroxidation live cell probe dose curve and survival kinetics; assay type: cell-based; conditions: dose curves
Source text: FIG. 7B plots gene expression of anti-ferroptotic genes for each cell line in response to increasing ARS1620 dosage. […] Lipid peroxidation and survival kinetics cross over around IC50 in all compounds indicating ARS1620 performs as a ferroptosis inducing agent.
Among this group of genes were FTH1 and FTL, the two components of the Ferritin Complex, which is responsible for sequestration of labile free iron. Using a lipid peroxidation live cell probe, lipid peroxidation—one of the hallmark phenotypes of ferroptosis—was measured in response to ARS-1620 treatment.

Compound | drug synergy from cell cycle active/inactive proportions [1] | gene-level synergy on mitochondrial reads (linear model) [1] | synergy in tumor growth reduction [2] | suppression of tumor growth (relative tumor volume) ([2]; n=4-5 mice per condition) | cross-over of survival and normalized lipid peroxidation curves [3]
antimycin | antagonistic effect | – | – | – | –
CC(C)n1nc(-c2ccc3oc(N)nc3c2)c2c(N)ncnc21 [INK128] | relative in vivo synergy | further increase the synergistic decrease in mitochondrial reads | synergistically reduce tumor growth in-vivo | – | –
Cc1cccc(-c2nn3c(c2-c2ccnc4ccc(C(N)=O)cc24)CCC3)n1 [Galunisertib] | relative in vivo synergy | further increase the synergistic decrease in mitochondrial reads | reduce growth synergistically | extremely effective in suppressing tumor growth | –
CN(C)c1nc(N(C)C)nc(N(C)C)n1 [Altretamine] | – | – | – | – | crossed over around the IC50 survival value
